Values joined by “and” are separate entries in the source; they are usually repeats but may differ in a detail not shown here. Equal entries are not always repeated.
Tests used:
[1] = system: SARS-CoV-2 gamma VoC; set-up: species or system K18-hACE2 mice (Mus musculus); settings: mouse, in vivo, 140 mg/kg/day
[2] = system: Salmonella typhimurium TA 102; assay: Ames test, strain TA 102
[3] = system: SARS-CoV-2; assay: Combination of RdRp inhibitors with SARS-CoV-2 nsp14 inhibitors in infected Calu-3 cells, synergy; assay type: cell-based; settings: for Response (Fig3C source data for synergy analysis): DTG 0 nM
[4] = system: SARS-CoV-2 gamma VoC; set-up: species or system K18-hACE2 mice (Mus musculus); settings: mouse, in vivo
[5] = system: SARS-CoV-2; assay: Yield-reduction assay, SARS-CoV-2 in Calu-3 cells (titers as PFU/mL in Vero cells); settings: for Inhibition of SARS-CoV-2 infectious titers (Fig1B source data, replicates): additional treatment at 24 h; for Inhibition of SARS-CoV-2 infectious titers (Fig1A source data, replicates): one treatment
[6] = infected Calu-3, compound alone at 10 uM

SMILES: c1coc(CNc2ncnc3[nH]cnc23)c1 [MB-905, N6-furfurylaminopurine]
- Infectious titers in lungs [1]: decreased significantly
- Virus RNA levels from lung extracts [1]: did not alter
- Mutagenicity TA 102 +S9 ([2]; 8 µg/mL): -
- Mutagenicity TA 102 -S9 ([2]; 8 µg/mL): -
- Mutagenicity TA 102 +S9 ([2]; 40 µg/mL): -
- Mutagenicity TA 102 -S9 ([2]; 40 µg/mL): -
- Mutagenicity TA 102 +S9 ([2]; 200 µg/mL): -
- Mutagenicity TA 102 -S9 ([2]; 200 µg/mL): -
- Mutagenicity TA 102 +S9 ([2]; 1,000 µg/mL): -
- Mutagenicity TA 102 -S9 ([2]; 1,000 µg/mL): -
- Mutagenicity TA 102 +S9 ([2]; 5,000 µg/mL): -
- Mutagenicity TA 102 -S9 ([2]; 5,000 µg/mL): -
- Response (Fig3C source data for synergy analysis) ([3]; MB-905 10 nM): 8
- Response (Fig3C source data for synergy analysis) ([3]; MB-905 100 nM): 17
- Response (Fig3C source data for synergy analysis) ([3]; MB-905 1000 nM): 44
- Response (Fig3C source data for synergy analysis) ([3]; MB-905 10000 nM): 89
- EC50 ([3]; Severe acute respiratory syndrome coronavirus 2, Calu-3, read-out: EC50 mean): 300 nM
- EC90 ([3]; Severe acute respiratory syndrome coronavirus 2, Calu-3, read-out: EC90 mean): 8000 nM
- Virus productive titers (Fig3A source data, replicates) [3, 6]: 60000 and 46000 and 56000
- Virus productive titers (Fig3B source data, replicates) [3, 6]: 60000 and 46000 and 52000
- SARS-CoV-2-induced inflammation in the BAL fluid [4]: attenuated
- EC50 ([5]; Severe acute respiratory syndrome coronavirus 2, Calu-3): 310 ± 50 nM
- EC50 ([5]; Severe acute respiratory syndrome coronavirus 2, Calu-3, 24 h): 30 ± 4 nM
- EC90 ([5]; Severe acute respiratory syndrome coronavirus 2, read-out: In vitro EC90 values, range): 2100 to 6300 nM
- Inhibition of SARS-CoV-2 infectious titers (Fig1B source data, replicates) ([5]; Drug 0.001, Calu-3, 48 h): 16 and 20 and 22
- Inhibition of SARS-CoV-2 infectious titers (Fig1B source data, replicates) ([5]; Drug 0.01): 22 and 55 and 63
- Inhibition of SARS-CoV-2 infectious titers (Fig1B source data, replicates) ([5]; Drug 0.1): 66 and 47 and 65
- Inhibition of SARS-CoV-2 infectious titers (Fig1B source data, replicates) ([5]; Drug 1): 92 and 72 and 69
- Inhibition of SARS-CoV-2 infectious titers (Fig1B source data, replicates) ([5]; Drug 10): 98 and 97 and 96
- Antiviral activity, SARS-CoV-2 replication ([5]; huh-7 and calu-3 cells (Supplementary Fig. 2)): inhibited SARS-CoV-2 replication in a concentration-dependent manner
- Inhibition of SARS-CoV-2 infectious titers (Fig1A source data, replicates) ([5]; Drug 0.001, Calu-3, MOI 0.1, 48 h): 5 and 4 and 2
- Inhibition of SARS-CoV-2 infectious titers (Fig1A source data, replicates) ([5]; Drug 0.01): 15 and 4 and 13
- Inhibition of SARS-CoV-2 infectious titers (Fig1A source data, replicates) ([5]; Drug 0.1): 22 and 39 and 30
- Inhibition of SARS-CoV-2 infectious titers (Fig1A source data, replicates) ([5]; Drug 1): 60 and 91 and 74
- Inhibition of SARS-CoV-2 infectious titers (Fig1A source data, replicates) ([5]; Drug 10): 66 and 96 and 88

Reference: paper PMC9837764 (Nature Communications, 2023)
